pIC50: −log10 of the molar value.

The text below walks through data of patent US20220009920A1 (GB005, Inc., priority 2020, published 2022).

One assay deals with T1, BTK (Homo sapiens, UniProt Q06187).
T1 construct: purchased Cama
The assay is described as follows: Assay to determine activity against BTK. In kind it is biochemical. The note with it: 1 mM ATP, 2 nM BTK, 90 minutes at room temperature. As for the experimental part:
Solutions of compounds (test or control) in DMSO were prepared at the desired concentrations, and serially diluted to 11 concentrations by 3-fold dilution in 384pp-plate using TECAN EVO200. 20 nL of stock were transferred to 384 plate using Echo550. DMSO was used as vehicle control.
(BTK was obtained from Cama; FLPeptide2 was obtained from PerkinElmer and Ibrutinib was obtained from Selleck.) 5 μL of ATP solution were added to each well, followed by addition of 15 μL of BTK solution to initiate the reaction. (Note the final volume of each well was 20 μL containing MgCl2 (10 mM), Brij-35 (0.01%), DTT (2 mM), BSA (0.05%), EGTA (1 mM), HEPE (pH7.5) (50 mM), FLPeptide (1.5 uM), ATP (1 mM) and BTK (2 nM).
The plates were incubated at room temperature for 90 minutes and then stopping buffer added (75 μL, containing 0.5 M EDTA) to terminate the reaction. Samples from each well were analyzed using EZ reader. The % remaining activity was calculated using read conversion ratio (CR) according to the equation: […]
XLFit (equation 201) was used to calculate IC50's by floating both bottom and top.

The test system of the next assay is BTK in RAMOS B cells. The assay is described as follows: Assay to determine BTK activity in RAMOS B cells (anti-IgM, FLIPR Calcium 6). Type of assay: cell-based. The note with it: anti-IgM EC80, calcium readout. As for the experimental part: On the day before assay, Ramos B cells were plated in plating medium (RPMI1640 medium containing 1% FBS and 1× pencillin-streptomycin). On the day of the assay, 2× dye solution was prepared following the manual of the FLIRP Calcium 6 Assay Kit: Dilute the dye with assay buffer (20 mM HEPES in IX HBSS, pH7.4); Add probenecid to the final concentration of 5 mM; vortex vigorously for 1-2 minutes. Cells were collected by centrifuging, and the pellet was re-suspended in plating medium. After counting, cells were re-suspended at a density of 3×10^6/ml in plating medium. Equal volume of 2× dye solution was added to the cell suspension. Cells were then plated at 20 μl/well into a 384-well poly-D-lysine coated plate. Plate was centrifuged at 1000 rpm for 3 minutes and then incubated at 37° C. for 2 hours followed by an additional 15-minute incubation at 25° C. Compounds were prepared at 3× concentration in dilution buffer (20 mM HEPES and 0.1% BSA in 1×HBSS, pH 7.4). Serially diluted compound was transferred from source plate to a 384-well compound plate by using an Echo 550 (Labcyte). 20 μl/well compound dilution buffer was added to the compound plate and mixed on plate shaker for 2 mins. 4× EC80 of Anti-IgM (Jackson ImmunoResearch) was prepared in dilution buffer and 20 μl/well was added to a new 384-well compound plate. After 60 mins of incubation at 25° C. in the dark; cell plate, compound plate containing 4×EC80 of anti-IgM and FLIPR tips were placed into FLIPR (Molecular Devices). 10 ul/well of 4×EC80 anti-IgM was transferred to the cell plate by FLIPR. Plates were read for 160 sec with 1 sec interval.

T1 sequence (Q06187 whole entry): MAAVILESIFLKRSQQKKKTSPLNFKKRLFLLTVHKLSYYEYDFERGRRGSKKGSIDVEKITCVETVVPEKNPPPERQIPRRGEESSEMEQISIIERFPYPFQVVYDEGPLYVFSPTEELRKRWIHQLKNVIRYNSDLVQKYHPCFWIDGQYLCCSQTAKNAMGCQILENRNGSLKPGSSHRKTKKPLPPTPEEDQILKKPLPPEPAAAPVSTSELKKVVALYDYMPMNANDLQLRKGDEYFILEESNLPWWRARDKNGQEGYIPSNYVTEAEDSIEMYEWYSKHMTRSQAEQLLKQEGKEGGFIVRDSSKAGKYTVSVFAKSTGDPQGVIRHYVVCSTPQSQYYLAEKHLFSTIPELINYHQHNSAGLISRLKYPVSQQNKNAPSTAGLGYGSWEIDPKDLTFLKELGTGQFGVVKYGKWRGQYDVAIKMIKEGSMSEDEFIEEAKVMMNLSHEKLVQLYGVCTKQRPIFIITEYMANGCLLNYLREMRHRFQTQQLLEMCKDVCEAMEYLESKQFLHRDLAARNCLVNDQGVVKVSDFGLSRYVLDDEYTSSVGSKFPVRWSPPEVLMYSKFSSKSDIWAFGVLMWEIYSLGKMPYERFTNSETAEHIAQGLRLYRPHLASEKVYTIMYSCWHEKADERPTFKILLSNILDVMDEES

For `C=CC(=O)N1CCC=C(c2c(F)cc(C(N)=O)c3[nH]c4c(c23)CC2(CC4)CC2)C1` [Compound 7-11, 5-(1-acryloyl-1,2,5,6-tetrahydropyridin-3-yl)-6-fluoro-1,2,4,9-tetrahydrospiro[carbazole-3,1′-cyclopropane]-8-carboxamide], the pIC50 is more than 8.00 against BTK and more than 8.00 with BTK in RAMOS B cells (Homo sapiens, Ramos).
For the compound `CC#CC(=O)N[C@H]1CCCC(c2c(F)cc(C(N)=O)c3[nH]c4c(c23)CCC4)C1` (single isomer, unassigned) [Compound 10-6], the pIC50 against BTK was 7.00 to 8.00; in the assay with BTK in RAMOS B cells it was not above 7.00.
As for `C=CC(=O)N1CCc2c(cccc2-c2c(F)cc(C(N)=O)c3[nH]c4c(c23)C[S+]([O-])CC4)C1` (single isomer, unassigned) [Compound 9-1, 9-(2-acryloyl-1,2,3,4-tetrahydroisoquinolin-5-yl)-8-fluoro-1,3,4,5-tetrahydrothiopyrano[4,3-b]indole-6-carboxamide 2-oxide], the pIC50 was more than 8.00 against BTK and not above 7.00 with BTK in RAMOS B cells (Homo sapiens, Ramos).
In the case of `C=CC(=O)N1CCC=C(c2cnc(C(N)=O)c3[nH]c4c(c23)CCCC4)C1` [Compound 2-2], the pIC50 was 7.00 to 8.00 at BTK and 7.00 to 8.00 in the assay with BTK in RAMOS B cells (Homo sapiens, Ramos).
With `C=CC(=O)N1CCc2c(cccc2-c2c(F)cc(C(N)=O)c3[nH]c4c(c23)CCCCC4)C1` (single isomer, unassigned) [Compound 5-1, 2-fluoro-1-[2-(prop-2-enoyl)-3,4-dihydro-1H-isoquinolin-5-yl]-5H,6H,7H,8H,9H,10H-cyclohepta[b]indole-4-carboxamide], the pIC50 against BTK and in the assay with BTK in RAMOS B cells was 7.00 to 8.00 each time.
With `C=CC(=O)N1CCc2c(cccc2-c2c(C)nc(C(N)=O)c3[nH]c4c(c23)CC2(CC4)CC2)C1` [Compound 7-26, 4′-(2-acryloyl-1,2,3,4-tetrahydroisoquinolin-5-yl)-3′-methyl-5′,7′,8′,9′-tetrahydrospiro[cyclopropane-1,6′-pyrido[3,4-b]indole]-1′-carboxamide], the pIC50 at BTK was not above 7.00; in the assay on BTK in RAMOS B cells (Homo sapiens, Ramos), not above 7.00.
Take `C=CC(=O)N1CCc2c(cccc2-c2c(F)cc(C(N)=O)c3[nH]c4c(c23)CC2(CCC2)CC4)C1` [Compound 7-13, 5-(2-acryloyl-1,2,3,4-tetrahydroisoquinolin-5-yl)-6-fluoro-1,2,4,9-tetrahydrospiro[carbazole-3,1′-cyclobutane]-8-carboxamide]: the pIC50 on BTK is 7.00 to 8.00; in the assay with BTK in RAMOS B cells (Homo sapiens, Ramos), not above 7.00.
As to `C=CC(=O)N1CCC=C(c2ccc(C(N)=O)c3[nH]c4c(c23)C[Si](C)(C)CC4)C1` [Compound 9-7, 9-(1-acryloyl-1,2,5,6-tetrahydropyridin-3-yl)-2,2-dimethyl-2,3,4,5-tetrahydro-1H-silino[4,3-b]indole-6-carboxamide], the negative logarithm of the IC50 (pIC50) on BTK was more than 8.00; in the assay on BTK in RAMOS B cells (Homo sapiens, Ramos), 7.00 to 8.00.
The matching figures for `CC#CC(=O)N[C@H]1CCCN(c2c(F)cc(C(N)=O)c3[nH]c4c(c23)CCCCC4)C1` [Compound 4-1, (S)-1-(3-(but-2-ynamido)piperidin-1-yl)-2-fluoro-5,6,7,8,9,10-hexahydrocyclohepta[b]indole-4-carboxamide]: 7.00 to 8.00 and 7.00 to 8.00.
Consider `C=CC(=O)N1CCc2c(cccc2-c2c(F)cc(C(N)=O)c3[nH]c4c(c23)CC2(CC4)CC2)C1` [Compound 7-12, 5-(2-acryloyl-1,2,3,4-tetrahydroisoquinolin-5-yl)-6-fluoro-1,2,4,9-tetrahydrospiro[carbazole-3,1′-cyclopropane]-8-carboxamide], for which the pIC50 is more than 8.00 at BTK and 7.00 to 8.00 with BTK in RAMOS B cells.
With `C=CC(=O)Nc1cccc(-c2c(F)cc(C(N)=O)c3[nH]c4c(c23)CCCCC4)c1` [Compound 5-3, 1-(3-acrylamidophenyl)-2-fluoro-5,6,7,8,9,10-hexahydrocyclohepta[b]indole-4-carboxamide], the pIC50 against BTK is 7.00 to 8.00; in the assay on BTK in RAMOS B cells (Homo sapiens, Ramos) it was 7.00 to 8.00.
As to `C=CC(=O)N1CCc2c(cccc2-c2c(F)cc(C(N)=O)c3[nH]c4c(c23)CC2(CCOCC2)CC4)C1` [Compound 7-19, 5-(2-acryloyl-1,2,3,4-tetrahydroisoquinolin-5-yl)-6-fluoro-1,2,2′,3′,4,5′,6′,9-octahydrospiro[carbazole-3,4′-pyran]-8-carboxamide], the pIC50 was 7.00 to 8.00 at BTK and not above 7.00 with BTK in RAMOS B cells (Homo sapiens, Ramos).
In the case of `C=CC(=O)N1CCc2c(cccc2-c2ncc(C(N)=O)c3[nH]c4c(c23)CC2(CC4)CC2)C1` [Compound 7-30, 1′-(2-acryloyl-1,2,3,4-tetrahydroisoquinolin-5-yl)-5′,6′,7′,9′-tetrahydrospiro[cyclopropane-1,8′-pyrido[4,3-b]indole]-4′-carboxamide], the pIC50 against BTK is more than 8.00; with BTK in RAMOS B cells (Homo sapiens, Ramos), 7.00 to 8.00.
The matching figures for `CC#CC(=O)N[C@@H]1C=C(c2c(F)cc(C(N)=O)c3[nH]c4c(c23)CCCCC4)CCC1` [Compound 5-9, 1-[(3S)-3-(but-2-ynoylamino)cyclohexen-1-yl]-2-fluoro-5,6,7,8,9,10-hexahydrocyclohepta[b]indole-4-carboxamide]: 7.00 to 8.00 and 7.00 to 8.00.
The matching figures for `C=CC(=O)N1CCCC(c2cnc(C(N)=O)c3[nH]c4c(c23)CCCC4)C1` (stereo not shown) [Compound 1-1, 4-(1-acryloylpiperidin-3-yl)-6,7,8,9-tetrahydro-5H-pyrido[3,4-b]indole-1-carboxamide]: 7.00 to 8.00 and 7.00 to 8.00.
The corresponding values for `C=CC(=O)N1CCC[C@H](c2cnc(C(N)=O)c3[nH]c4c(c23)CCCC4)C1` [Compound 2-3, (R)-4-(1-acryloylpiperidin-3-yl)-6,7,8,9-tetrahydro-5H-pyrido[3,4-b]indole-1-carboxamide] are not above 7.00 and not above 7.00.
As to `CC#CC(=O)N[C@H]1C[C@@H](F)CN(c2c(F)cc(C(N)=O)c3[nH]c4c(c23)CCC4)C1` [Compound 10-9, 8-((3S,5R)-3-(but-2-ynamido)-5-fluoro-piperidin-1-yl)-7-fluoro-1,2,3,4-tetrahydrocyclopenta[b]indole-5-carboxamide], the pIC50 is 7.00 to 8.00 against BTK and 7.00 to 8.00 in the assay on BTK in RAMOS B cells (Homo sapiens, Ramos).
Consider `C=CC(=O)N1CCCC(c2c(F)cc(C(N)=O)c3[nH]c4c(c23)CCCCC4)C1` (single isomer, unassigned) [Compound 5-7], for which the pIC50 against BTK and with BTK in RAMOS B cells was not above 7.00 each time.
For the compound `CC#CC(=O)N[C@H]1C[C@@H](O)CN(c2c(F)cc(C(N)=O)c3[nH]c4c(c23)CCCCC4)C1` [Compound 4-4, 1-((3S,5R)-3-(but-2-ynamido)-5-hydroxypiperidin-1-yl)-2-fluoro-5,6,7,8,9,10-hexahydrocyclohepta[b]indole-4-carboxamide], the pIC50 is 7.00 to 8.00 on BTK and not above 7.00 in the assay on BTK in RAMOS B cells (Homo sapiens, Ramos).
For `C=CC(=O)N1CCc2c(cccc2-c2cnc(C(N)=O)c3[nH]c4c(c23)CCCC4)C1` [Compound 2-1, 4-(2-acryloyl-1,2,3,4-tetrahydroisoquinolin-5-yl)-6,7,8,9-tetrahydro-5H-pyrido[3,4-b]indole-1-carboxamide], the pIC50 is 7.00 to 8.00 against BTK and 7.00 to 8.00 with BTK in RAMOS B cells (Homo sapiens, Ramos).
For the compound `CC#CC(=O)N[C@H]1CCCC(c2c(F)cc(C(N)=O)c3[nH]c4c(c23)CCC4)C1` (single isomer, unassigned) [Compound 10-5], the pIC50 against BTK and in the assay on BTK in RAMOS B cells was more than 8.00 throughout.
`C=CC(=O)N1CCC=C(c2ccc(C(N)=O)c3[nH]c4c(c23)CSCC4)C1` [Compound 8-1, 9-(1-acryloyl-1,2,5,6-tetrahydropyridin-3-yl)-1,3,4,5-tetrahydrothiopyrano-[4,3-b]indole-6-carboxamide]: the pIC50 is more than 8.00 on BTK and more than 8.00 in the assay on BTK in RAMOS B cells (Homo sapiens, Ramos).
Turning to `C=CC(=O)N1CCc2c(cccc2-c2c(C)nc(C(N)=O)c3[nH]c4c(c23)CCCC4)C1` (single isomer, unassigned) [Compound 2-5, 4-(2-acryloyl-1,2,3,4-tetrahydroisoquinolin-5-yl)-3-methyl-6,7,8,9-tetrahydro-5H-pyrido[3,4-b]indole-1-carboxamide], the pIC50 at BTK is 7.00 to 8.00; with BTK in RAMOS B cells, not above 7.00.

In general, pIC50 refers to the negative decadic logarithm of the IC50, by convention in mol/L.
